Assay results reported in patent US12410262B2, “Peptide conjugates of cytotoxins as therapeutics” (Cybrexa 2, Inc., priority 2019, dated 2025).
pIC50: −log10 of the molar value. Residues, ends and D or L forms follow the SMILES beside them. *: point of attachment. X1 = CC[C@@]1(O)C(=O)OCc2c1cc1n(c2=O)Cc2c-1nc1cc(F)c(C)c3c1c2[C@@H](NC(=O)O[C@H](C)[C@H](C)S*)CC3

Legend:
Experiment in all cases: cells
Conditions in all cases: 96 h
[1] = tested on: HCT116; type: cell-based, human
Method in brief: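 DLD-1 WT (2500/well), FaDu and HeLa (5000/well) and HCT116 (3000/well) were grown in 10% FBS media and dosed in triplicate 24 h after plating. After 96 h of drug exposure at 37 °C, cells were fixed, Hoechst-stained and counted by imaging; percent growth delay was calculated versus untreated controls.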

[2] = tested on: HeLa cells; type: cell-based
Protocol: (§1) Cells were plated in 96 well black walled-clear bottom plates (Griener), DLD-1 WT cells at 2500 cells per well, FaDu, and HeLa cells at 5000 cells per well, and HCT116 at 3000 cells per well, in growth media containing 10% FBS. Cells were allowed to adhere at room temperature for 60 minutes before returning to a 37 C, 5% CO2 incubator. After 24 hours, media was removed and replaced with fresh growth media containing various drug concentrations. Each drug concentration was added in triplicate. Non-drug treated controls contained growth media only. Cells were returned to the incubator. Ninety-six hours after addition of drug, cells were fixed with 4% paraformaldehyde for 20 minutes and stained with Hoechst at 1 ug/mL. The plates were imaged on a Cytation 5 auto imager (BioTek) and cells were counted using CellProfiler (http://cellprofiler.org). The percent cell growth delay was calculated and data plotted using GraphPad Prism

[3] = tested on: FaDu; type: cell-based
Protocol: as §1

[4] = tested on: DLD-1 WT cells; type: cell-based
Protocol: as §1

CC[C@H](C)[C@H](NC(=O)[C@@H]1CCCN1C(=O)[C@H](CC(N)=O)NC(=O)[C@H](CCC(N)=O)NC(=O)[C@H](CCC(=O)O)NC(=O)[C@H](C)N)C(=O)N[C@@H](Cc1ccc(O)cc1)C(=O)N[C@@H](Cc1c[nH]c2ccccc12)C(=O)N[C@@H](C)C(=O)N[C@@H](CCCNC(=N)N)C(=O)N[C@@H](Cc1ccc(O)cc1)C(=O)N[C@@H](C)C(=O)N[C@@H](CC(=O)O)C(=O)N[C@@H](Cc1c[nH]c2ccccc12)C(=O)N[C@@H](CC(C)C)C(=O)N[C@@H](Cc1ccccc1)C(=O)N[C@H](C(=O)N[C@H](C(=O)N1CCC[C@H]1C(=O)N[C@@H](CC(C)C)C(=O)N[C@@H](CC(C)C)C(=O)N[C@@H](CC(C)C)C(=O)N[C@@H](CC(C)C)C(=O)N[C@@H](CC(=O)O)C(=O)N[C@@H](CC(C)C)C(=O)N[C@@H](C)C(=O)N[C@@H](CC(C)C)C(=O)N[C@@H](CC(C)C)C(=O)N[C@H](C(=O)N[C@@H](CC(=O)O)C(=O)N[C@@H](C)C(=O)N[C@@H](CC(=O)O)C(=O)N[C@@H](CCC(=O)O)C(=O)N[C@@H](CSS[C@@H](C)[C@@H](C)OC(=O)N[C@H]1CCc2c(C)c(F)cc3nc4c(c1c23)Cn1c-4cc2c(c1=O)COC(=O)[C@]2(O)CC)C(=O)NCC(=O)O)C(C)C)[C@@H](C)O)[C@@H](C)O [Compound 6] (H-AEQNPIYWARYADWLFTTPLLLLDLALLVDADEC(X1)G-OH; N-terminus and C-terminus assumed)
pIC50 [1]: 9.00 | pIC50 [2]: 9.21 | pIC50 [3]: 9.12 | pIC50 [4]: 7.86
